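Results reflect a 48-hour exposure of cells in 96-well plates to compound at five concentrations. Here, GI50 denotes the concentration required for 50% inhibition of growth.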 Activity calls are given as the source filed them. Cut-off read from the data, not from the text of the source: active = GI50 up to about 1.1 µM and inactive = higher.
Columns and labels:
Assay in all cases: NCI tumour cell line growth inhibition, 48 h
MCF7 = test system: MCF7
NCI/ADR-RES = test system: NCI/ADR-RES
NCI-H23 = test system: NCI-H23
HCC 2998 = test system: HCC 2998
SNB-78 = test system: SNB-78
M19-MEL = test system: M19-MEL
DMS-273 = test system: DMS-273
K562 = test system: K562
DLD-1 = test system: DLD-1
DMS-114 = test system: DMS-114
CAKI-1 = test system: CAKI-1
NCI-H522 = test system: NCI-H522
HCT-116 = test system: HCT-116
BT-549 = test system: BT-549
ACHN = test system: ACHN
MDA-MB-435 = test system: MDA-MB-435
SR = test system: SR
MDA-MB-231 = test system: MDA-MB-231
DU-145 = test system: DU-145
KM-20L2 = test system: KM-20L2

Row | Structure (SMILES) | GI50 (MCF7) | GI50 (NCI/ADR-RES) | GI50 (NCI-H23) | GI50 (HCC 2998) | GI50 (SNB-78) | GI50 (M19-MEL) | GI50 (DMS-273) | GI50 (K562) | GI50 (DLD-1) | GI50 (DMS-114) | GI50 (CAKI-1) | GI50 (NCI-H522) | GI50 (HCT-116) | GI50 (BT-549) | GI50 (ACHN) | GI50 (MDA-MB-435) | GI50 (SR) | GI50 (MDA-MB-231) | GI50 (DU-145) | GI50 (KM-20L2)
1 | C#CCn1c(=O)c(C#N)c(O)c2cc3ccccc3nc21 | > 100 µM (inactive) | > 100 µM (inactive) | > 100 µM (inactive) | > 100 µM (inactive) | > 100 µM (inactive) | > 100 µM (inactive) | > 100 µM (inactive) | > 100 µM (inactive) | > 100 µM (inactive) | > 100 µM (inactive) | > 100 µM (inactive) | > 100 µM (inactive) | > 100 µM (inactive) | – | – | – | – | – | – | –
2 | CC(=O)OCCCCn1cnc2nc(Nc3ccccc3)nc(Cl)c21 | > 100 µM (inactive) | 42.4 µM (inactive) | – | 85.3 µM (inactive) | – | – | – | 99.1 µM (inactive) | – | – | 14 µM (inactive) | – | 72.4 µM (inactive) | 26.9 µM (inactive) | 60.7 µM (inactive) | 34.4 µM (inactive) | > 100 µM (inactive) | 35.2 µM (inactive) | – | –
3 | OCCOCn1nc(-c2ccccc2)nc1-c1cnccn1 | > 100 µM (inactive) | > 100 µM (inactive) | > 100 µM (inactive) | > 100 µM (inactive) | – | – | – | > 100 µM (inactive) | – | – | – | > 100 µM (inactive) | > 100 µM (inactive) | > 100 µM (inactive) | – | – | > 100 µM (inactive) | > 100 µM (inactive) | > 100 µM (inactive) | –
4 | CCN(CC)Cc1ccc2cccnc2c1O | 3.27 µM (inactive) | 0.358 µM (active) | 6.67 µM (inactive) | 11.1 µM (inactive) | – | – | – | 2.15 µM (inactive) | – | – | 2.47 µM (inactive) | 0.37 µM (active) | 3.59 µM (inactive) | 37.1 µM (inactive) | 2.33 µM (inactive) | 9.42 µM (inactive) | 0.995 µM (active) | 5.53 µM (inactive) | 10.8 µM (inactive) | –
5 | Nc1ccc(C2(c3ccc(N)cc3)C3CC4CC(C3)CC2C4)cc1 | 19.5 µM (inactive) | 0.0792 µM (active) | 12.4 µM (inactive) | 20.8 µM (inactive) | – | – | – | 10.3 µM (inactive) | – | – | 15 µM (inactive) | 15.6 µM (inactive) | 21.9 µM (inactive) | 11.2 µM (inactive) | 18.7 µM (inactive) | 14.7 µM (inactive) | 14.5 µM (inactive) | 17.4 µM (inactive) | – | –
6 | O=C(NC1C(O)C(O)C(CO)OC1n1cc(F)c(=O)[nH]c1=O)OCc1ccccc1 (stereo unspecified) | – | – | > 100 µM (inactive) | > 100 µM (inactive) | > 100 µM (inactive) | – | > 100 µM (inactive) | – | > 100 µM (inactive) | > 100 µM (inactive) | > 100 µM (inactive) | > 100 µM (inactive) | > 100 µM (inactive) | – | > 100 µM (inactive) | – | > 100 µM (inactive) | – | – | > 100 µM (inactive)
7 | CCN(CC)CCN(C(=O)c1ccc(F)cc1)c1ccccc1N | > 10 µM (inactive) | > 10 µM (inactive) | > 10 µM (inactive) | > 10 µM (inactive) | – | – | – | > 10 µM (inactive) | – | – | > 10 µM (inactive) | > 10 µM (inactive) | > 10 µM (inactive) | – | > 10 µM (inactive) | > 10 µM (inactive) | > 10 µM (inactive) | > 10 µM (inactive) | > 10 µM (inactive) | –
8 | COc1cc(C2c3cc4c(cc3OC(N3CCCCC3)C2C)OCO4)cc(OC)c1OC (stereo unspecified) | 1.44 µM (inactive) | 3.17 µM (inactive) | 3.41 µM (inactive) | 2.9 µM (inactive) | – | – | – | 2.44 µM (inactive) | – | – | 2.46 µM (inactive) | 2.49 µM (inactive) | 3.37 µM (inactive) | 18.9 µM (inactive) | 6.79 µM (inactive) | 0.67 µM (active) | 3.27 µM (inactive) | 4.98 µM (inactive) | 3.49 µM (inactive) | –
9 | c1ccc2c(c1)SC1Sc3ccccc3[S+]21 (stereo unspecified) | 25.1 µM (inactive) | 19.9 µM (inactive) | 18.2 µM (inactive) | – | – | – | – | 6.07 µM (inactive) | – | – | 17.8 µM (inactive) | 6.53 µM (inactive) | 22.7 µM (inactive) | 20.1 µM (inactive) | 14.1 µM (inactive) | 18.8 µM (inactive) | – | 23.7 µM (inactive) | 21.6 µM (inactive) | –
10 | CC1CCC(O)/C=C/C(=O)OC(C)C(O)/C=C/C(=O)O1 (stereo unspecified) | > 92.9 µM (inactive) | > 100 µM (inactive) | > 73.5 µM (inactive) | > 100 µM (inactive) | – | – | – | 41.9 µM (inactive) | – | – | > 100 µM (inactive) | 35.6 µM (inactive) | > 60.5 µM (inactive) | 41.8 µM (inactive) | > 68.4 µM (inactive) | > 100 µM (inactive) | 51.5 µM (inactive) | > 100 µM (inactive) | > 100 µM (inactive) | –
11 | CCOC(=O)c1c2ccccc2n2c(=O)n(-c3ccccc3)nnc12 | 0.923 µM (active) | > 58.3 µM (inactive) | > 87.1 µM (inactive) | 47.1 µM (inactive) | – | – | – | 16.6 µM (inactive) | – | – | > 91.4 µM (inactive) | – | 73.8 µM (inactive) | > 100 µM (inactive) | > 27 µM (inactive) | 18.7 µM (inactive) | – | > 100 µM (inactive) | > 100 µM (inactive) | –
12 | CC(C)=CCc1c(OC(=O)c2c(C)cc(O)cc2O)cc(CO)c(CO)c1O | 24 µM (inactive) | 30.1 µM (inactive) | 16.8 µM (inactive) | 16.4 µM (inactive) | – | – | – | 7.62 µM (inactive) | – | – | 5.48 µM (inactive) | 18 µM (inactive) | 20.9 µM (inactive) | 18.7 µM (inactive) | 14.4 µM (inactive) | 17.7 µM (inactive) | 20.7 µM (inactive) | 15.5 µM (inactive) | 25.1 µM (inactive) | –
13 | NCCCCN(CCCN)Cc1ccccc1 | > 100 µM (inactive) | > 100 µM (inactive) | > 100 µM (inactive) | > 100 µM (inactive) | – | – | – | > 100 µM (inactive) | – | – | > 100 µM (inactive) | > 100 µM (inactive) | > 100 µM (inactive) | > 100 µM (inactive) | > 100 µM (inactive) | > 100 µM (inactive) | – | > 100 µM (inactive) | > 100 µM (inactive) | –
14 | Nc1ncnc2c1ncn2C=C=CCO | > 100 µM (inactive) | > 100 µM (inactive) | > 100 µM (inactive) | > 100 µM (inactive) | – | – | – | > 100 µM (inactive) | – | – | > 100 µM (inactive) | – | > 100 µM (inactive) | > 100 µM (inactive) | – | > 100 µM (inactive) | > 100 µM (inactive) | > 100 µM (inactive) | > 100 µM (inactive) | –
15 | COc1ccc(-c2nnc(-c3nsc4ccccc34)o2)cc1 | – | – | > 100 µM (inactive) | 77.4 µM (inactive) | > 100 µM (inactive) | > 100 µM (inactive) | 71.4 µM (inactive) | – | – | 58.1 µM (inactive) | – | – | 38.4 µM (inactive) | – | 33 µM (inactive) | – | 31.9 µM (inactive) | – | – | > 100 µM (inactive)
16 | Cn1ccc(C(=O)NCCN(CCNC(=O)c2ccn(C)c(=O)c2O)CCNC(=O)c2ccn(C)c(=O)c2O)c(O)c1=O | > 100 µM (inactive) | > 100 µM (inactive) | > 100 µM (inactive) | > 100 µM (inactive) | – | – | – | > 100 µM (inactive) | – | – | > 100 µM (inactive) | > 100 µM (inactive) | – | > 100 µM (inactive) | 74.6 µM (inactive) | > 100 µM (inactive) | > 100 µM (inactive) | > 100 µM (inactive) | > 100 µM (inactive) | –
